Source: patent US9650423B2, “Long peptides of 22-45 amino acid residues that induce and/or enhance antigen specific immune responses” (priority 2000, dated 2017)
Where two headings read alike, the source gives them in different places. Residues, ends and D or L forms follow the SMILES beside them. No end group written: not given here.

Experiments:
[1] = system: HPV16 E2-specific Th-clones; assay: HPV16 E2-specific Th-clones: peptide recognition; format: cell-based, human; settings: clones from long-term E2 peptide stimulated healthy donor PBMC
Procedure: Long-term HPV16 E2-specific T-cell cultures and Th-clones were established according to previously described procedures (van der Burg et al. 1999). Briefly, PBMC from healthy HLA-typed donors were stimulated in vitro with the following HPV16 E2 peptides (E2271-300+E2286-315, E2301-330+E2316-345, E2331-365). 15×10^6 PBMC were seeded in 25 cm^2 culture flasks (Nalge Nunc, USA) in 6 ml IMDM supplemented with 10% autologous serum. Peptides were added at a concentration of 5 μg/ml. At day 7.15×10^6 PBMC were added, together with fresh medium and peptides. At day 14 and 21 viable T cells were harvested from the cultures, counted and restimulated with an equal amount of autologous irradiated PBMC and peptide (5 μg/ml). T-cell growth factor (Biotest, Dreieich, Germany) was added 2 days after restimulation at a final concentration of 10%. The T-cell cultures were tested for peptide recognition by proliferation assay at day 28. Peptide-specific T-cell cultures were cloned by limiting dilution and T-cell clones were subsequently tested for the recognition of E2-peptide and -protein-pulsed APC.
Specificity of the Th clones was analysed as described previously (Van der Burg et al. 1999). […] For measurement of proliferation, cultures were pulsed with […] [^3H] thymidine (5 μCi/mM, Amersham, UK) per well for 18 hours. Plates were harvested with a Micro cell Harvester (Skatron, Norway). Filters were packed in plastic covers containing 10 ml of scintillation fluid and subsequently counted on a 1205 Betaplate counter (Wallac, Turku, Finland). HLA-class II blocking experiments were performed using murine monoclonal antibodies: anti-DQ SPV. L3, anti-DR B8. 11.2, and anti-DP B7/21. Supernatants of the proliferation assays were harvested 24 hrs after incubation and analysed for the presence of IFN-γ by ELISA (van der Burg et al., 1999).

[2] = system: PBMC of HLA-DR1 positive blood donors; assay: Proliferation of PBMC stimulated with long E6 peptides; format: cell-based, human; settings: two HLA-DR1 positive donors, stimulated with pool of two 35-mer peptides covering E6 109-158
Procedure: Furthermore, PBMC of two different HLA-DR1 positive blood donors were stimulated with a pool of two long 35-mer peptides that together covered E6 109-158. […] A CD4+ T-helper clone derived from one of these bulks was analysed further and specifically proliferated and produced IFNγ when stimulated with HPV16 E6 peptide and HPV16 E6 protein in a HLA-DR1 restricted manner (FIG. 16).
FIGS. 16a-16d depict a peptide E6127-158 induced T-cell response that recognizes naturally processed Ag. PBMC from a healthy HLA-DR1 positive blood donor were stimulated four times with peptide E6127-158. FIGS. 16a and 16b are entitled E6 127-158 stimulated HLA-DR1+PBMC. Proliferation of the bulk T-cell culture (top, left, 16a) and IFNγ production (top, right, 16b) is depicted. FIGS. 16c and 16d are entitled E6 127-158 stimulated PBMC derived clone 9 HLA-DR restriction in proliferation and IFNγ production. The specific proliferation (bottom, left, 16c) and IFNγ production (bottom, right, 16d) of the T-helper clone, derived from the bulk T-cell culture, and HLA-restriction when stimulated with E6127-158, or E6 protein is depicted. (See, also, FIGS. 1a-1d and associated descriptions).

HLA-DR1 (DRB*0101) = target: T1, HLA-DR1 (DRB*0101) (Homo sapiens, UniProt P01903+P01911, A100R/D57E/F55L/F60I/F76Y/I96L/L162R/M171V/P40L/Q125E/R42F/V115G/Y59C); assay: biochemical; format: binding
T1 construct: endogenous in cells; host or cells: LG2.1 B-lymphoblastic cell line, homozygous for HLA-DR

HLA-DR2 (DRB1*0201) = assay: HLA-DR-peptide binding assay; set-up: species or system human
HLA-DR3 (DRB*0301) = assay: HLA-DR-peptide binding assay; set-up: species or system human
HLA-DR4 (DRB*0401) = assay: HLA-DR-peptide binding assay; set-up: species or system human
HLA-DR 1, 2, 3, 4 and 7 = assay: HLA-DR-peptide binding assay, summary over the molecules tested; set-up: species or system human; settings: E7 peptides tested on HLA-DR 1, 2, 3, 4 and 7
Procedure: The analysis of peptide binding to purified DR molecules was performed using N-terminally fluorescence-labelled standard peptides.

HLA-DR7 (DRB1*0701) = HLA-DR7 (DRB1*0701) (Homo sapiens, UniProt P01903+P01911, A100R/A102G/A103Q/D57E/D86V/E43K/F76Y/K127E/L162R/M171V/P40G/Q125H/Q99D/R33Q/R42Y/R54Q/S133A/S66F/T210M/V115G/Y107V/Y59L/Y89S); settings: read-out: Binding DR7, IC50
[3] = system: HPV16 E7-specific T-helper clones; assay: HPV16 E7-specific Th-clones: proliferation and IFNγ production; format: cell-based, human; settings: Th-clone from HLA-DR15, 4 and DQ6,7 positive PBMC raised against peptide E741-62
Procedure: Peptide-specific T-cell bulk cultures were generated as described previously (van der Burg et al., 1999) using either the E7 22-mer or E7 35-mer peptides. Specific proliferation was measured by incubation of 50,000 responders with an equal amount of irradiated (30Gy) APC (autologous PBMC unless indicated otherwise) and peptide or protein as indicated. E7-peptide and -protein-specific bulk T-cells were cloned by limiting dilution as described previously (van der Burg et al., 1999).
To determine specific excretion of cytokines, T-cell clones were stimulated by incubation of 50.000 T-cells with an equal amount of APC (30Gy) together with 10 μg/ml peptide, control peptide, E7 protein or control protein as indicated. After 24 hours of incubation, supernatant was harvested and replicate wells were pooled. Cytokine production was measured by Enzyme-Linked Immunosorbent Assay (ELISA) as described previously (van der Burg et al., 1999).

[4] = HPV16-E7 22-mer peptides, >70 indicates undetectable binding, read-out: Binding DR2, IC50
[5] = HPV16-E7 22-mer peptides, >70 indicates undetectable binding, read-out: Binding DR3, IC50
[6] = HPV16-E7 22-mer peptides, >70 indicates undetectable binding, read-out: Binding DR4, IC50

| Compound | recognition by E2-specific CD4+ Th clones and HLA restriction [1] | IC50 (HLA-DR2 (DRB1*0201); [4]) | IC50 (HLA-DR3 (DRB*0301); [5]) | IC50 (HLA-DR4 (DRB*0401); [6]) | HLA-DR molecules bound (HLA-DR 1, 2, 3, 4 and 7) | also measured |
| --- | --- | --- | --- | --- | --- | --- |
| E2 61-75: Th epitope peptide, amino acids 61-75 of HPV16 E2 (TLAVSKNKALQAIEL; UniProt P03120 61-75, looked up, fragment) | reacted against | – | – | – | – | – |
| E6 protein: recombinant HPV16-E6 protein produced in E. coli (DKKQRFHNIRGRWTGRCMSCCRSSRTRRETQL) [reference compound] | – | – | – | – | – | specific proliferation of PBMC [2]: proliferated specifically |
| CC[C@H](C)[C@H](NC(=O)CNC(=O)[C@H](CC(C)C)NC(=O)[C@@H](NC(=O)CNC(=O)[C@H](CCSC)NC(=O)[C@H](CC(C)C)NC(=O)[C@H](CC(C)C)NC(=O)[C@H](CC(=O)O)NC(=O)[C@H](CCC(=O)O)NC(=O)[C@H](CC(C)C)NC(=O)[C@@H](NC(=O)[C@@H](N)CCCNC(=N)N)[C@@H](C)O)[C@@H](C)O)C(=O)N[C@H](C(=O)N[C@@H](CS)C(=O)N1CCC[C@H]1C(=O)N[C@H](C(=O)N[C@@H](CS)C(=O)N[C@@H](CO)C(=O)N[C@@H](CCC(N)=O)C(=O)N[C@@H](CCCCN)C(=O)N1CCC[C@H]1C(=O)O)[C@@H](C)CC)C(C)C [E7 77-98] (H-RTLEDLLMGTLGIVCPICSQKP-OH; N-terminus and C-terminus assumed) | – | 22 µM | > 70 µM | > 70 µM | bound to DR1, 2 and DR7 | IC50 (HLA-DR1 (DRB*0101); read-out: Binding DR1, IC50, HPV16-E7 22-mer peptides, >70 indicates undetectable binding): 46 µM; IC50 (HLA-DR7 (DRB1*0701); HPV16-E7 22-mer peptides, >70 indicates undetectable binding): 0.9 µM |
| E6 127-158: peptide, amino acids 127-158 of HPV16 E6 protein (DKKQRFHNIRGRWTGRCMSCCRSSRTRRETQL) | – | – | – | – | – | specific proliferation of PBMC [2]: proliferated specifically |
| CC[C@H](C)[C@H](NC(=O)[C@H](CC(N)=O)NC(=O)[C@H](Cc1ccc(O)cc1)NC(=O)[C@@H](N)Cc1c[nH]cn1)C(=O)N[C@H](C(=O)N[C@H](C(=O)N[C@@H](Cc1ccccc1)C(=O)N[C@@H](CS)C(=O)N[C@@H](CS)C(=O)N[C@@H](CCCCN)C(=O)N[C@@H](CS)C(=O)N[C@@H](CC(=O)O)C(=O)N[C@@H](CO)C(=O)N[C@H](C(=O)N[C@@H](CC(C)C)C(=O)N[C@@H](CCCNC(=N)N)C(=O)N[C@@H](CC(C)C)C(=O)N[C@@H](CS)C(=O)N[C@H](C(=O)N[C@@H](CCC(N)=O)C(=O)N[C@@H](CO)C(=O)N[C@H](C(=O)O)[C@@H](C)O)C(C)C)[C@@H](C)O)[C@@H](C)O)C(C)C [E7 51-72] (H-HYNIVTFCCKCDSTLRLCVQST-OH; N-terminus and C-terminus assumed) | – | > 70 µM | 50 µM | > 70 µM | bound to DR1, 3 and 7 | – |
| CC[C@H](C)[C@H](NC(=O)[C@H](CC(N)=O)NC(=O)[C@H](Cc1ccc(O)cc1)NC(=O)[C@H](Cc1c[nH]cn1)NC(=O)[C@H](C)NC(=O)[C@H](CCCNC(=N)N)NC(=O)[C@H](CC(=O)O)NC(=O)[C@@H]1CCCN1C(=O)[C@H](CCC(=O)O)NC(=O)[C@H](C)NC(=O)[C@H](CCC(N)=O)NC(=O)CNC(=O)[C@H](C)NC(=O)[C@@H]1CCCN1)C(=O)N[C@H](C(=O)N[C@H](C(=O)N[C@@H](Cc1ccccc1)C(=O)N[C@@H](CS)C(=O)N[C@@H](CS)C(=O)N[C@@H](CCCCN)C(=O)N[C@@H](CS)C(=O)N[C@@H](CC(=O)O)C(=O)O)[C@@H](C)O)C(C)C [E7 41-62] (H-PAGQAEPDRAHYNIVTFCCKCD-OH; N-terminus and C-terminus assumed) | – | 50 µM | 55 µM | 38 µM | bound to DR1, 2, 3 and 4 | IC50 (HLA-DR1 (DRB*0101); read-out: Binding DR1, IC50): 7.4 µM; response of HLA-DR15 restricted Th-clone to pulsed APC [3]: specifically respond; IC50 (HLA-DR7 (DRB1*0701)): > 70 µM |
| LRYRFKKHCTLYTAVSSTWHWTGHNVKHKS [E2 301-330] | both Th-clones recognized | – | – | – | – | IC50 (HLA-DR1 (DRB*0101); HPV16-E2 peptides, >70 represents undetectable binding, read-out: Binding affinity DR1, IC50): 6 µM; IC50 (HLA-DR2 (DRB1*0201); HPV16-E2 peptides, >70 represents undetectable binding, read-out: Binding affinity DR2, IC50): 8 µM; IC50 (HLA-DR3 (DRB*0301); HPV16-E2 peptides, >70 represents undetectable binding, read-out: Binding affinity DR3, IC50): > 70 µM; IC50 (HLA-DR4 (DRB*0401); HPV16-E2 peptides, >70 represents undetectable binding, read-out: Binding affinity DR4, IC50): 10 µM |
| E2 51-70: Th epitope peptide, amino acids 51-70 of HPV16 E2 (FKHINHQVVPTLAVSKNKAL) | in a HLA-DR4 restricted manner | – | – | – | – | – |
| E6 121-142: 22-mer peptide, amino acids 121-142 of HPV16 E6 protein (EKQRHLDKKQRFHNIRGRWTGR; UniProt P03126 121-142, looked up, fragment) | – | – | – | – | – | specific proliferation of PBMC [2]: proliferated specifically |
| E2 351-365: Th epitope peptide, amino acids 351-365 of HPV16 E2 (KIPKTITVSTGFMSI) | in a DR1-restricted manner | – | – | – | – | – |
| CSCC[C@H](NC(=O)[C@H](Cc1ccc(O)cc1)NC(=O)[C@H](CCC(=O)O)NC(=O)[C@H](Cc1c[nH]cn1)NC(=O)[C@H](CC(C)C)NC(=O)[C@@H](NC(=O)[C@@H]1CCCN1C(=O)[C@@H](NC(=O)[C@H](CC(=O)O)NC(=O)CNC(=O)[C@H](Cc1c[nH]cn1)NC(=O)[C@@H](N)CCSC)[C@@H](C)O)[C@@H](C)O)C(=O)N[C@@H](CC(C)C)C(=O)N[C@@H](CC(=O)O)C(=O)N[C@@H](CC(C)C)C(=O)N[C@@H](CCC(N)=O)C(=O)N1CCC[C@H]1C(=O)N[C@@H](CCC(=O)O)C(=O)N[C@H](C(=O)N[C@H](C(=O)N[C@@H](CC(=O)O)C(=O)N[C@@H](CC(C)C)C(=O)O)[C@@H](C)O)[C@@H](C)O [E7 1-22] | – | 10 µM | 0.8 µM | 30 µM | bound to HLA DR2, 3, 4 and 7 | IC50 (HLA-DR1 (DRB*0101); read-out: Binding DR1, IC50): > 70 µM; IC50 (HLA-DR7 (DRB1*0701)): 7 µM |
| E2 311-325: Th epitope peptide, amino acids 311-325 of HPV16 E2 (LYTAVSSTWHWTGHN) | in the context of HLA-DQ6 (1) | – | – | – | – | – |
